From patent US20240287070A1, “FUSED HETEROCYCLIC DERIVATIVES” (Janssen Sciences Ireland Unlimited Company, priority 2021, published 2024)

Tests used:
[1] = Human liver microsome stability; type: in vitro ADME; settings: pooled human liver microsomes 0.5 mg/mL, 1 μM compound, NADPH 1 mM, 37° C., 0-60 min
In short: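 Half-life came from elimination rate constant (negative slope of ln compound/internal standard area ratio over time), measured by cassette LC-MS after acetonitrile quench. Human liver microsome reactions, one replicate per compound, were initiated with NADPH (1 mM final) and sampled at six points up to 60 min.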

[2] = test system: HBV (HepG2.117 cell line, inducibly HBV producing); assay: Anti-HBV activity, intracellular HBV DNA by real-time PCR in HepG2.117 cell line; type: cell-based, hepatitis B virus; settings: HepG2.117 cells, 3 days of treatment
In short: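 Readout is intracellular HBV DNA, measured by real-time PCR with HBV-specific primers and probe after 3 days of exposure to serial compound dilutions. Cells are the stable HepG2.117 line, where HBV replication is induced in the absence of doxycycline.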

[3] = test system: HepG2 or HepG2.117 cells; assay: Cytotoxicity, ATPlite Luminescence Assay; type: cell-based, human; settings: 3-days incubation unless marked with *
In short: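 Compounds were added to cells and incubated 3 or 4 days. ATP content was then measured by luminescence to gauge cell viability.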

Structure (SMILES)	HLM Metabolism t1/2 [1]	EC50 [2]	CC50 [3]
CNC(=O)c1ccc(C(C)N2C[C@@H](C)n3nc4c(c3C2=O)CN(C(=O)c2ccc(Cl)c(Cl)c2)[C@H](C)C4)cn1 (single isomer, unassigned) [Compound 24B, 5-((S*)-1-((3R,7R)-2-(3,4-dichlorobenzoyl)-3,7-dimethyl-10-oxo-1,3,4,7,8,10-hexahydropyrido[4′,3′:3,4]pyrazolo[1,5-a]pyrazin-9(2H)-yl)ethyl)-N-methylpicolinamide]	>3 h	0.02 µM	> 50 µM
CC(c1ccc(N2CCCS2(=O)=O)nc1)N1C[C@@H](C)n2nc3c(c2C1=O)CN(C(=O)c1ccc(Cl)c(C(F)(F)F)c1)[C@H](C)C3 (single isomer, unassigned) [Compound 28B, (3R,7R)-2-(4-chloro-3-(trifluoromethyl)benzoyl)-9-((S*)-1-(6-(1,1-dioxidoisothiazolidin-2-yl)pyridin-3-yl)ethyl)-3,7-dimethyl-1,2,3,4,8,9-hexahydropyrido[4′,3′: 3,4]pyrazolo[1,5-a]pyrazin-10(7H)-one]	2.37 h	0.011 µM	> 50 µM
CC(c1cnn(C(C)C)c(=O)c1)N1C[C@@H](C)n2nc3c(c2C1=O)CN(C(=O)c1ccc(Cl)c(C(F)(F)F)c1)[C@H](C)C3 (single isomer, unassigned) [Compound 53B, (3R,7R)-2-(4-chloro-3-(trifluoromethyl)benzoyl)-9-((S*)-1-(1-isopropyl-6-oxo-1,6-dihydropyridazin-4-yl)ethyl)-3,7-dimethyl-1,2,3,4,8,9-hexahydropyrido[4′,3′:3,4]pyrazolo[1,5-a]pyrazin-10(7H)-one]	1.18 h	0.01 µM	> 50 µM
CC(c1cc(F)c(=O)n(C2CC2)c1)N1C[C@@H](C)n2nc3c(c2C1=O)CN(C(=O)c1ccc(Cl)c(Cl)c1)[C@H](C)C3 (single isomer, unassigned) [Compound 46B, (3R,7R)-9-((S*)-1-(1-cyclopropyl-5-fluoro-6-oxo-1,6-dihydropyridin-3-yl)ethyl)-2-(3,4-dichlorobenzoyl)-3,7-dimethyl-1,2,3,4,8,9-hexahydropyrido[4′,3′:3,4]pyrazolo[1,5-a]pyrazin-10(7H)-one]	>3 h	0.031 µM	> 50 µM
CC(c1ncccn1)N1C[C@@H](C)n2nc3c(c2C1=O)CN(C(=O)c1ccc(Cl)c(Cl)c1)[C@H](C)C3 (single isomer, unassigned) [Compound 39B, (3R,7R)-2-(3,4-dichlorobenzoyl)-3,7-dimethyl-9-((S*)-1-(pyrimidin-2-yl)ethyl)-1,2,3,4,8,9-hexahydropyrido[4′,3′:3,4]pyrazolo[1,5-a]pyrazin-10(7H)-one]	>3 h	0.035 µM	> 25 µM
CNC(=O)C1(Oc2ccc(C(C)N3C[C@@H](C)n4nc5c(c4C3=O)CN(C(=O)c3ccc(Cl)c(C#N)c3)[C@H](C)C5)cc2)CC1 (single isomer, unassigned) [Compound 13B, 1-(4-((S*)-1-((3R,7R)-2-(4-chloro-3-cyanobenzoyl)-3,7-dimethyl-10-oxo-1,2,3,4,7,8-hexahydropyrido[4′,3′:3,4]pyrazolo[1,5-a]pyrazin-9(10H)-yl)ethyl)phenoxy)-N-methylcyclopropanecarboxamide]	2.15 h	0.091 µM	> 50 µM
CC(c1ccc(NS(C)(=O)=O)cn1)N1C[C@@H](C)n2nc3c(c2C1=O)CN(C(=O)c1ccc(Cl)c(C(F)(F)F)c1)[C@H](C)C3 (single isomer, unassigned) [Compound 33B, N-(6-((S*)-1-((3R,7R)-2-(4-chloro-3-(trifluoromethyl)benzoyl)-3,7-dimethyl-10-oxo-1,3,4,7,8,10-hexahydropyrido[4′,3′:3,4]pyrazolo[1,5-a]pyrazin-9(2H)-yl)ethyl)pyridin-3-yl)methanesulfonamide]	>3 h	0.043 µM	> 50 µM
CC(c1ccc(C(C)(C)O)nc1)N1C[C@@H](C)n2nc3c(c2C1=O)CN(C(=O)c1ccc(Cl)c(Cl)c1)[C@H](C)C3 (single isomer, unassigned) [Compound 2B, (3R,7R)-2-(3,4-dichlorobenzoyl)-9-((S*)-1-(6-(2-hydroxypropan-2-yl)pyridin-3-yl)ethyl)-3,7-dimethyl-1,2,3,4,8,9-hexahydropyrido[4′,3′:3,4]pyrazolo[1,5-a]pyrazin-10(7H)-one]	2.3 h	0.015 µM	> 50 µM
CC(c1ncc(C(F)(F)F)cn1)N1C[C@@H](C)n2nc3c(c2C1=O)CN(C(=O)c1ccc(Cl)c(Cl)c1)[C@H](C)C3 (single isomer, unassigned) [Compound 40B, (3R,7R)-2-(3,4-dichlorobenzoyl)-3,7-dimethyl-9-((S*)-1-(5-(trifluoromethyl)pyrimidin-2-yl)ethyl)-1,2,3,4,8,9-hexahydropyrido[4′,3′:3,4]pyrazolo[1,5-a]pyrazin-10(7H)-one]	>3 h	0.26 µM	22.9 µM
CC(c1ccc(S(C)(=O)=O)cc1)N1C[C@@H](C)n2nc3c(c2C1=O)CN(C(=O)c1ccc(Cl)c(Cl)c1)[C@H](C)C3 (single isomer, unassigned) [Compound 15B, (3R,7R)-2-(3,4-dichlorobenzoyl)-3,7-dimethyl-9-((S*)-1-(4-(methylsulfonyl)phenyl)ethyl)-1,2,3,4,8,9-hexahydropyrido[4′,3′:3,4]pyrazolo[1,5-a]pyrazin-10(7H)-one]	>3 h	0.019 µM	> 50 µM
